Experimental data taken from patent EP4335840A1, “NEW CONTRAST AGENTS FOR USE IN DIAGNOSTIC IMAGING” (priority 2022, dated 2024).

Assay: Water solubility in aqueous buffer
Format: physicochemical
Details: aqueous buffer 10 mM Tris-HCl, pH 7.4, 20°C; Gd by ICP-MS
Experimental: The exploratory water solubility of the compounds is determined at room temperature (20°C) in 0.5 mL buffer solution (10 mM Tris-HCI, pH 7.4) in the microcentrifuge tubes (Eppendorf, 2.0 mL safe-lock caps). The solid compounds were added stepwise to the buffer solution. More substance is added once all the suspended material is dissolved until an equilibrium between undissolved and dissolved substance is reached. The suspension was mixed using a shaker (Heidolph Reax 2000) and treated 5 min in an ultrasound bath (Bandelin, Sonorex Super RK255H). The Gadolinium concentration of the test substance in the clear solution is measured by ICP-MS. Table 1: Solubilities of compounds in aqueous buffer at 20°C (pH 7.4).

Substance | Solubility
Gadolinium-2,2',2"-[10-(carboxymethyl)-2-(4-ethoxybenzyl)-1,4,7,10-tetraazacyclododecane-1,4,7-triyl]triacetate [Example 9] | > 145 mM
Gadolinium-2,2',2"-[(2S)-2-(4-butoxybenzyl)-10-(carboxymethyl)-1,4,7,10-tetraaza cyclododecane-1,4,7-triyl]triacetate [Example 13] | > 43 mM
Gadolinium-2,2',2"-[(2S)-10-(carboxymethyl)-2-(4-ethoxybenzyl)-1,4,7,10-tetraazacyclododecane-1,4,7-triyl]triacetate [Example 11] | > 146 mM
Gadolinium-2,2',2"-[(2S)-10-(carboxymethyl)-2-(4-ethoxybenzyl)-1,4,7,10-tetraazacyclododecane-1,4,7-triyl]triacetate [Example 10] | > 23 mM
Gadolinium-2,2',2"-[(2S)-2-(4-butoxybenzyl)-10-(carboxymethyl)-1,4,7,10-tetraaza cyclododecane-1,4,7-triyl]triacetate [Example 12] | 211 mM
